Test systems include 786-0; A549; CCRF-CEM; DU-145; HT-29; IGROV-1; K562; LOX IMVI; MDA-N; MOLT-4; NCI-H460; RPMI-8226; SF-539; SK-MEL-2; SK-OV-3; SN12C; TK-10; UO-31; CAKI-1; MDA-MB-435.
Holding throughout (assay): NCI tumour cell line growth inhibition, 48 h

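Exposure lasted 48 hours, with cells grown in 96-well plates and compounds tested at five concentrations. GI50 marks 50% less growth.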 Activity calls are given as the source filed them. Cut-off read from the data, not from the text of the source: active = GI50 up to about 1.1 µM and inactive = higher. Bounds are passed on as bounds.

As for `O=c1cc(NNc2ccc(F)cc2)[nH]c(=O)[nH]1`, the GI50 is 12.5 µM (inactive) in the assay on 786-0; 18.3 µM (inactive) with A549; 12.9 µM (inactive) in the assay with CCRF-CEM; > 100 µM (inactive) in the assay with DU-145; 16.9 µM (inactive) in the assay with HT-29; 16.6 µM (inactive) with IGROV-1. For the same compound, the GI50 is 17.8 µM (inactive) in the assay on K562; > 100 µM (inactive) in the assay with LOX IMVI; 16.4 µM (inactive) with MDA-N; 19.8 µM (inactive) in the assay with MOLT-4; 19.4 µM (inactive) with NCI-H460; 11 µM (inactive) in the assay on RPMI-8226. Moreover, the GI50 with SF-539 was 21.5 µM (inactive); with SK-MEL-2, 21.4 µM (inactive); in the assay with SK-OV-3, 39.1 µM (inactive); with SN12C, 18.2 µM (inactive); in the assay with TK-10, 22 µM (inactive); with UO-31 it was 17.9 µM (inactive).
Regarding `CCOC(=O)NC(C(=O)OCC)C(F)(F)F` (stereo not drawn), the GI50 in the assay on 786-0 is > 100 µM (inactive); in the assay with A549, > 100 µM (inactive); in the assay on CAKI-1, > 100 µM (inactive); in the assay on CCRF-CEM it was 40.6 µM (inactive); in the assay on HT-29, > 100 µM (inactive); in the assay on IGROV-1, > 100 µM (inactive). Moreover, the GI50 in the assay on K562 is > 100 µM (inactive); in the assay with LOX IMVI it was 76.6 µM (inactive); with MDA-N, > 100 µM (inactive); in the assay on MOLT-4, 93.8 µM (inactive); in the assay with NCI-H460, > 100 µM (inactive); in the assay with RPMI-8226 it was 57 µM (inactive). The GI50 in the assay with SF-539 is 37.4 µM (inactive); in the assay on SK-MEL-2, > 100 µM (inactive); in the assay on SK-OV-3 it was > 100 µM (inactive); with SN12C, > 100 µM (inactive); with TK-10, > 100 µM (inactive); in the assay with UO-31, > 100 µM (inactive).
Turning to `COC1OC(C)/C(=N/O)C2OC(C)(C)OC12` (stereo not drawn), the GI50 in the assay on 786-0, with A549, in the assay with CAKI-1, in the assay with CCRF-CEM, in the assay with DU-145 and with HT-29 was > 100 µM (inactive) each time. For the same compound, the GI50 in the assay on IGROV-1, with K562, in the assay on LOX IMVI, with MDA-MB-435, with MOLT-4 and with NCI-H460 was > 100 µM (inactive) in each case. The GI50 in the assay with RPMI-8226, in the assay with SF-539, in the assay with SK-OV-3, in the assay with SN12C, in the assay with TK-10 and in the assay on UO-31 was > 100 µM (inactive) each time.
Regarding `CC#CS(=O)(=O)c1ccccc1`, the GI50 in the assay with 786-0 is 3.43 µM (inactive); with A549 it was 16.1 µM (inactive); with CAKI-1 it was 1.04 µM (active); in the assay with DU-145 it was 2.82 µM (inactive); with HT-29, 3.67 µM (inactive); in the assay on IGROV-1 it was 11.9 µM (inactive). Also, the GI50 with LOX IMVI is 5.45 µM (inactive); in the assay on MDA-MB-435, 10.9 µM (inactive); in the assay with MOLT-4 it was 0.253 µM (active); with NCI-H460 it was 17.5 µM (inactive); with SF-539 it was 4.08 µM (inactive); in the assay on SK-MEL-2, 14.2 µM (inactive). The GI50 was 17.3 µM (inactive) with SK-OV-3, 6.32 µM (inactive) in the assay with SN12C, 4.92 µM (inactive) in the assay with TK-10 and 1.86 µM (inactive) in the assay with UO-31.
`COc1cccc(/C=C2\N=C(Cl)OC2=O)c1O`: the GI50 in the assay on 786-0 was > 94.6 µM (inactive); in the assay on A549, > 100 µM (inactive); with CAKI-1, > 100 µM (inactive); in the assay with CCRF-CEM, > 55.3 µM (inactive); with DU-145 it was > 100 µM (inactive); in the assay with HT-29, > 100 µM (inactive). In addition, the GI50 in the assay with IGROV-1 is > 100 µM (inactive); in the assay with K562, > 100 µM (inactive); with LOX IMVI it was > 100 µM (inactive); in the assay with MOLT-4, > 100 µM (inactive); in the assay on NCI-H460, > 100 µM (inactive); in the assay on RPMI-8226, > 73.5 µM (inactive). The GI50 was > 100 µM (inactive) in the assay with SF-539; > 100 µM (inactive) in the assay with SK-MEL-2; > 38.7 µM (inactive) in the assay on SK-OV-3; > 100 µM (inactive) in the assay on SN12C; > 100 µM (inactive) in the assay with TK-10; > 100 µM (inactive) in the assay with UO-31.
For the compound `O=c1[nH]nc(-c2ccccc2)c2[nH]c3c4ccccc4ccc3c12`, the GI50 in the assay with 786-0 was 2.1 µM (inactive); in the assay with A549, 1.31 µM (inactive); in the assay on CCRF-CEM, 1.56 µM (inactive); in the assay with HT-29, 0.459 µM (active); in the assay on IGROV-1, 4.24 µM (inactive); in the assay with K562, 0.279 µM (active). Besides, the GI50 with MDA-MB-435 was 0.193 µM (active); with MDA-N it was 0.199 µM (active); with MOLT-4, 1.64 µM (inactive); with NCI-H460, 0.56 µM (active); with RPMI-8226 it was 0.746 µM (active); in the assay with SF-539, 0.964 µM (active). The GI50 in the assay on SK-MEL-2 is 7.62 µM (inactive); with SK-OV-3, 2.61 µM (inactive); with SN12C, 3.87 µM (inactive); in the assay with TK-10, 2.17 µM (inactive).
On to `O=S(=O)(SCCCCSS(=O)(=O)c1ccc(Cl)cc1)c1ccc(Cl)cc1`, for which the GI50 was 9.68 µM (inactive) with 786-0; 13.5 µM (inactive) in the assay on A549; 12.7 µM (inactive) with CAKI-1; 1.85 µM (inactive) in the assay with CCRF-CEM; 17.3 µM (inactive) with HT-29; 5.2 µM (inactive) in the assay on IGROV-1. The GI50 in the assay with K562 is 20 µM (inactive); in the assay with LOX IMVI it was 3.39 µM (inactive); with MOLT-4, 2.73 µM (inactive); in the assay on NCI-H460, 14.4 µM (inactive); with RPMI-8226, 4.39 µM (inactive); in the assay with SF-539, 12.4 µM (inactive). Further, the GI50 in the assay on SK-MEL-2 is 14.9 µM (inactive); with SK-OV-3 it was 15.3 µM (inactive); in the assay on SN12C, 9.23 µM (inactive); with TK-10, 21.3 µM (inactive); with UO-31 it was 9.04 µM (inactive).
As for `CN1CCC2(CC1)SSC1(CCN(C)CC1)S2`, the GI50 with 786-0 was > 100 µM (inactive); in the assay with A549, > 100 µM (inactive); in the assay on CCRF-CEM, > 100 µM (inactive); in the assay on HT-29, > 100 µM (inactive); in the assay on K562, > 100 µM (inactive); with LOX IMVI, 2.35 µM (inactive). Besides, the GI50 in the assay with MDA-MB-435, with MDA-N, with MOLT-4, with NCI-H460, in the assay with RPMI-8226 and in the assay with SF-539 was > 100 µM (inactive) in each case. For the same compound, the GI50 with SK-MEL-2, with SK-OV-3, in the assay with SN12C and in the assay with UO-31 was > 100 µM (inactive) throughout.
For the compound `CCOC(=O)C(/N=N\c1ccc(S(N)(=O)=O)cc1)C(C)=O` (stereo not drawn), the GI50 in the assay on 786-0, in the assay with A549, in the assay with CAKI-1, in the assay on CCRF-CEM, in the assay with HT-29 and with IGROV-1 was > 100 µM (inactive) each time. Besides, the GI50 in the assay with K562, with LOX IMVI, in the assay on MOLT-4, in the assay with NCI-H460, with RPMI-8226 and in the assay on SF-539 was > 100 µM (inactive) each time. Besides, the GI50 in the assay with SK-MEL-2, in the assay with SK-OV-3, with SN12C, in the assay with TK-10 and in the assay on UO-31 was > 100 µM (inactive) each time.
Consider `Nc1nc(N)c(-c2ccccc2)c(C(=O)Nc2ccccc2)n1`, for which the GI50 in the assay on 786-0, in the assay on A549, with CAKI-1, in the assay on CCRF-CEM, in the assay on HT-29 and in the assay on IGROV-1 was > 100 µM (inactive) each time. Moreover, the GI50 with K562, in the assay with LOX IMVI, in the assay on MOLT-4, in the assay on NCI-H460, with RPMI-8226 and with SF-539 was > 100 µM (inactive) each time. For the same compound, the GI50 with SK-MEL-2, in the assay on SK-OV-3, with SN12C, in the assay with TK-10 and in the assay with UO-31 was > 100 µM (inactive) each time.
Take `COC(=O)CCCC(=O)O`: the GI50 with 786-0, in the assay with A549, with CAKI-1, with DU-145, in the assay on HT-29 and in the assay on IGROV-1 was > 100 µM (inactive) in each case. Further, the GI50 in the assay on LOX IMVI, in the assay on MDA-MB-435, in the assay on MDA-N, in the assay on MOLT-4, in the assay on NCI-H460 and with SK-MEL-2 was > 100 µM (inactive) each time. Further, the GI50 with SN12C, in the assay on TK-10 and with UO-31 was > 100 µM (inactive) in each case.
Take `COc1ccc(/C=C/C(=O)c2sc(-n3nc(-c4ccccc4)cc3-c3ccccc3)nc2C)cc1`: the GI50 is > 10 µM (inactive) with 786-0; > 10 µM (inactive) with A549; 55.2 µM (inactive) in the assay with CAKI-1; > 10 µM (inactive) in the assay with CCRF-CEM; 30.5 µM (inactive) in the assay on HT-29; > 10 µM (inactive) in the assay with IGROV-1. For the same compound, the GI50 in the assay on K562 is 52.2 µM (inactive); in the assay on LOX IMVI, > 10 µM (inactive); in the assay on MOLT-4, 56.6 µM (inactive); in the assay with NCI-H460, > 10 µM (inactive); in the assay on RPMI-8226, 39.7 µM (inactive); in the assay with SF-539, > 10 µM (inactive). Further, the GI50 was > 10 µM (inactive) in the assay with SK-MEL-2; > 10 µM (inactive) in the assay with SK-OV-3; 75.9 µM (inactive) in the assay on SN12C; > 10 µM (inactive) in the assay with TK-10; 31.6 µM (inactive) in the assay with UO-31.

For the origin of these results see ChEMBL document CHEMBL1201862, “PubChem BioAssay data set” (2004).
